In patent US20260265259A1, “SUBSTITUTED 6-IMIDAZOPYRIDAZINE IL-17A MODULATORS AND USES THEREOF” (DICE ALPHA, INC., priority 2023, published 2026):

These compounds were tested on IL-17A/A (assay: IL-17A/A HEK-Blue cell assay). Conditions: HEK-Blue, 20 h, IL-17A/A inhibition, HEK-Blue IL-17A reporter cell line, IL17A/A 5 ng/mL, SEAP read at A630, read-out: AA IC50.
Type: cell-based
Protocol: The HEK-Blue IL-17A reporter cell line (Fisher #NC1408637) was used for cell-based IL-17A/A inhibition assays. Cells were grown and prepared for assays according to the manufacturer's instructions. This cell line consists of HEK 293 cells that were designed to expressed IL-17RA, IL-17RC, and the Act1 adapter molecule, the combination of which, when stimulated by IL-17A/A or IL17A/F activates a NFκB promoter and drives expression of the recombinant Secreted Alkaline Phosphatase (SEAP) gene. Media from the cells is then added to a development reagent (Quanti-Blue Substrate, Fisher #NC9711613), and read at A630.
Compounds were dispensed in DMSO to an empty clear 384-well tissue culture plate in a titration ranging from 10 μM to 27 pM, with DMSO added to every well to a final concentration of 0.1%. Cells were then added to the plate (45 μL/well at a concentration of 280,000 cells/mL). IL17A/A (Genscript #Z03228) or IL17A/F (R&D Systems) was added to the plate to a final concentration of 5 ng/mL and a final well volume of 50 μL. The cells, compound, and IL-17A/A or IL17A/F were then incubated for 20 hours before media was removed for SEAP analysis. The resulting inhibition curve was then analyzed using Dotmatics' integrated 4-parameter fit screening protocol to generate IC50 values.

| IC50 | SMILES |
| --- | --- |
| < 100 nM | CCn1nccc1C(=O)N[C@H](c1cn2nc(C[C@H]3C[C@@H](C(F)(F)F)CNC3=O)c(N3CC4CC3CO4)cc2n1)C1CCC(F)(F)CC1 (stereo partly drawn) [Compound 51] |
| < 100 nM | CCn1nccc1C(=O)N[C@H](c1cn2nc(C[C@H]3C[C@@H](C(F)(F)F)CNC3=O)c(C3CCOC(C)(C)C3)cc2n1)C1CCC(F)(F)CC1 (stereo partly drawn) [Compound 87] |
| < 100 nM | CCn1nccc1C(=O)N[C@H](c1cn2nc(C[C@H]3C[C@@H](C(F)(F)F)CNC3=O)c(C3CCCO3)cc2n1)C1CCC(F)(F)CC1 (stereo partly drawn) [Compound 83] |
| < 100 nM | CCn1nccc1C(=O)N[C@H](c1cn2nc(C[C@H]3C[C@@H](C(F)(F)F)CNC3=O)c(N3CCN4CCOC[C@@H]4C3)cc2n1)C1CCC(F)(F)CC1 [Compound 104, N—((S)-(4,4-difluorocyclohexyl)(7-((S)-hexahydropyrazino[2,1-c][1,4]oxazin-8(1H)-yl)-6-(((3R,5R)-2-oxo-5-(trifluoromethyl)piperidin-3-yl)methyl)imidazo[1,2-b]pyridazin-2-yl)methyl)-1-ethyl-1H-pyrazole-5-carboxamide] |
| < 100 nM | CCn1nccc1C(=O)N[C@H](c1cn2nc(C[C@H]3C[C@@H](C(F)(F)F)CNC3=O)c(C3CC3)cc2n1)C1CCC(F)(F)CC1 [Compound 36] |
| < 100 nM | O=C(N[C@H](c1cn2nc(C[C@H]3C[C@@H](C(F)(F)F)CNC3=O)c(C3CCOCC3)cc2n1)[C@@H]1CCCC(F)(F)C1)c1nonc1C1CC1 [Compound 59] |
| < 100 nM | CCn1nccc1C(=O)N[C@H](c1cn2nc(C[C@H]3C[C@@H](C(F)(F)F)CNC3=O)c(N3CCC3)cc2n1)C1CCC(F)(F)CC1 [Compound 23] |
| < 100 nM | CCn1nccc1C(=O)N[C@H](c1cn2nc(C[C@H]3C[C@@H](C(F)(F)F)CNC3=O)c(CN3CCOCC3)cc2n1)C1CCC(F)(F)CC1 [Compound 108, N—((S)-(4,4-difluorocyclohexyl)(7-(morpholinomethyl)-6-(((3R,5R)-2-oxo-5-(trifluoromethyl)piperidin-3-yl)methyl)imidazo[1,2-b]pyridazin-2-yl)methyl)-1-ethyl-1H-pyrazole-5-carboxamide] |
| < 100 nM | CCn1nccc1C(=O)N[C@H](c1cn2nc(C[C@H]3C[C@@H](C(F)(F)F)CNC3=O)c(CN3CC(F)(F)C3)cc2n1)C1CCC(F)(F)CC1 [Compound 109, N—((S)-(7-((3,3-difluoroazetidin-1-yl)methyl)-6-(((3R,5R)-2-oxo-5-(trifluoromethyl)piperidin-3-yl)methyl)imidazo[1,2-b]pyridazin-2-yl)(4,4-difluorocyclohexyl)methyl)-1-ethyl-1H-pyrazole-5-carboxamide] |
| < 100 nM | CCn1nccc1C(=O)N[C@H](c1cn2nc(C[C@H]3C[C@@H](C(F)(F)F)CNC3=O)c(CN(C)C3COC3)cc2n1)C1CCC(F)(F)CC1 [Compound 114, N—((S)-(4,4-difluorocyclohexyl)(7-((methyl(oxetan-3-yl)amino)methyl)-6-(((3R,5R)-2-oxo-5-(trifluoromethyl)piperidin-3-yl)methyl)imidazo[1,2-b]pyridazin-2-yl)methyl)-1-ethyl-1H-pyrazole-5-carboxamide] |
| < 100 nM | CCn1nccc1C(=O)N[C@H](c1cn2nc(C[C@H]3C[C@@H](C(F)(F)F)CNC3=O)c(C3CCCOC3)cc2n1)[C@H]1CCCC(F)(F)C1 (stereo partly drawn) [Compound 63] |
| > 1000 nM | CCn1nccc1C(=O)N[C@H](c1cn2nc(C[C@@H]3C[C@@H](C(F)(F)F)CNC3=O)c(-c3cncnc3)cc2n1)C1CCC(F)(F)CC1 [Compound 9] |
| < 100 nM | CC(C)n1nccc1C(=O)N[C@H](c1cn2nc(C[C@H]3C[C@@H](C(F)(F)F)CNC3=O)c(N3CCOCC3)cc2n1)[C@H]1CCCC(F)(F)C1 [Compound 27] |
| < 100 nM | CCn1nccc1C(=O)N[C@H](c1cn2nc(C[C@H]3C[C@@H](C(F)(F)F)CNC3=O)c(C3CCOCC3)cc2n1)[C@H]1CCCC(F)(F)C1 [Compound 55] |
| < 100 nM | CCn1nccc1C(=O)N[C@H](c1cn2nc(C[C@H]3C[C@@H](C(F)(F)F)CNC3=O)c(N3CC4(CCOCC4)C3)cc2n1)C1CCC(F)(F)CC1 [Compound 48] |
| 100 to 1000 nM | CCn1nccc1C(=O)N[C@H](c1cn2nc(C[C@H]3C[C@@H](C(F)(F)F)CNC3=O)c(-c3cccnc3)cc2n1)C1CCC(F)(F)CC1 [Compound 3] |
| < 100 nM | O=C(N[C@H](c1cn2nc(C[C@H]3C[C@@H](C(F)(F)F)CNC3=O)c(C3CCOCC3)cc2n1)C1CCC(F)(F)CC1)c1ccnn1C1CC1 [Compound 91] |
| < 100 nM | O=C(N[C@H](c1cn2nc(C[C@H]3C[C@@H](C(F)(F)F)CNC3=O)c(C3CCOC3)cc2n1)[C@@H]1CCCC(F)(F)C1)c1nonc1C1CC1 (stereo partly drawn) [Compound 70] |

Further lines, the compound ahead of its results:

| SMILES | IC50 |
| --- | --- |
| CCn1nccc1C(=O)N[C@H](c1cn2nc(C[C@H]3C[C@@H](C(F)(F)F)CNC3=O)c(N3CC4(CCCOC4)C3)cc2n1)C1CCC(F)(F)CC1 [Compound 47] | < 100 nM |
| CCn1ncnc1C(=O)N[C@H](c1cn2nc(C[C@H]3C[C@@H](C(F)(F)F)CNC3=O)c(C3CCOCC3)cc2n1)C1CCC(F)(F)CC1 [Compound 89] | 100 to 1000 nM |
| CCn1nccc1C(=O)N[C@H](c1cn2nc(C[C@H]3C[C@@H](C(F)(F)F)CNC3=O)c(N3CCCCC3)cc2n1)C1CCC(F)(F)CC1 [Compound 18] | < 100 nM |
| O=C(N[C@H](c1cn2nc(CC3C[C@@H](C(F)(F)F)CNC3=O)c(N3CCOCC3)cc2n1)C1CCC(F)(F)CC1)c1nonc1C1CC1 (stereo partly drawn) [Compound 15] | < 100 nM |
| CCn1nccc1C(=O)N[C@H](c1cn2nc(C[C@H]3C[C@@H](C(F)(F)F)CNC3=O)c(N3CCN(C)C4(CC4)C3)cc2n1)C1CCC(F)(F)CC1 [Compound 82] | < 100 nM |
| CCn1nccc1C(=O)N[C@H](c1cn2nc(CC3C[C@@H](C(F)(F)F)CNC3=O)c(N3CCOCC3)cc2n1)C1CCC(F)(F)CC1 (stereo partly drawn) [Compound 14] | < 100 nM |
| O=C(N[C@H](c1cn2nc(C[C@H]3C[C@@H](C(F)(F)F)CNC3=O)c(N3CCOCC3)cc2n1)[C@H]1CCCC(F)(F)C1)c1nonc1C1CC1 [Compound 29] | < 100 nM |
| CCn1nccc1C(=O)N[C@H](c1cn2nc(C[C@H]3C[C@@H](C(F)(F)F)CNC3=O)c(N3CCOCC3)cc2n1)[C@H]1CCCC(F)(F)C1 [Compound 25] | < 100 nM |
| CCn1nccc1C(=O)N[C@H](c1cn2nc(C[C@H]3C[C@@H](C(F)(F)F)CNC3=O)c(N3CCOCC3C)cc2n1)C1CCC(F)(F)CC1 (stereo partly drawn) [Compound 32] | 100 to 1000 nM |
| CCn1nccc1C(=O)N[C@H](c1cn2nc(C[C@H]3C[C@@H](C(F)(F)F)CNC3=O)c(N3CC4CC(C3)O4)cc2n1)C1CCC(F)(F)CC1 [Compound 35] | < 100 nM |
| CCn1nccc1C(=O)N[C@H](c1cn2nc(C[C@H]3C[C@@H](C(F)(F)F)CNC3=O)c(N3CCN(C4CC4)CC3)cc2n1)C1CCC(F)(F)CC1 [Compound 80] | < 100 nM |
| CCn1nccc1C(=O)N[C@H](c1cn2nc(C[C@H]3C[C@@H](C(F)(F)F)CNC3=O)c(N3CCC4(COC4)C3)cc2n1)C1CCC(F)(F)CC1 [Compound 49] | < 100 nM |
| CCn1nccc1C(=O)N[C@H](c1cn2nc(C[C@H]3C[C@@H](C(F)(F)F)CNC3=O)c(C3CCOC3)cc2n1)C1CCC(F)(F)CC1 (stereo partly drawn) [Compound 6] | < 100 nM |
| CCn1nccc1C(=O)N[C@H](c1cn2nc(C[C@H]3C[C@@H](C(F)(F)F)CNC3=O)c(N3CCCC3)cc2n1)C1CCC(F)(F)CC1 [Compound 22] | < 100 nM |
| CCn1nccc1C(=O)N[C@H](c1cn2nc(C[C@H]3C[C@@H](C(F)(F)F)CNC3=O)c(C3CCCCC3)cc2n1)C1CCC(F)(F)CC1 [Compound 76] | < 100 nM |
| CCn1nccc1C(=O)N[C@H](c1cn2nc(C[C@H]3C[C@@H](C(F)(F)F)CNC3=O)c(-c3cncnc3)cc2n1)C1CCC(F)(F)CC1 [Compound 4] | 100 to 1000 nM |
| O=C(N[C@H](c1cn2nc(C[C@H]3C[C@@H](C(F)(F)F)CNC3=O)c(N3CCOCC3)cc2n1)C1CCC(F)(F)CC1)c1nonc1C1CC1 [Compound 16] | < 100 nM |

Same assay, conditions: IL-17A/A inhibition, HEK-Blue IL-17A reporter cell line, IL17A/A 5 ng/mL, 20 hours, SEAP read at A630; read-out: AA IC50

| IC50 | SMILES |
| --- | --- |
| 100 to 1000 nM | CCn1nccc1C(=O)N[C@H](c1cn2nc(C[C@@H]3C[C@@H](C(F)(F)F)CNC3=O)c(C3CCOC3)cc2n1)C1CCC(F)(F)CC1 (stereo partly drawn) [Compound 11] |
| < 100 nM | CCn1nccc1C(=O)N[C@H](c1cn2nc(C[C@H]3C[C@@H](C(F)(F)F)CNC3=O)c(C3CCCCO3)cc2n1)C1CCC(F)(F)CC1 (stereo partly drawn) [Compound 85] |

Second part, the compound before the results:

| SMILES | IC50 |
| --- | --- |
| CCn1nccc1C(=O)N[C@H](c1cn2nc(C[C@H]3C[C@@H](C(F)(F)F)CNC3=O)c(N3CCOC(C)C3)cc2n1)C1CCC(F)(F)CC1 (stereo partly drawn) [Compound 34] | < 100 nM |
| O=C(N[C@H](c1cn2nc(C[C@H]3C[C@@H](C(F)(F)F)CNC3=O)c(C3CCOCC3)cc2n1)C1CCC(F)(F)CC1)c1ccnn1C1CC1(F)F (stereo partly drawn) [Compound 93] | < 100 nM |
| CCn1nccc1C(=O)N[C@H](c1cn2nc(C[C@H]3C[C@@H](C(F)(F)F)CNC3=O)c(C3CCCOC3)cc2n1)C1CCC(F)(F)CC1 (stereo partly drawn) [Compound 13] | < 100 nM |
| CCn1nccc1C(=O)N[C@H](c1cn2nc(C[C@@H]3C[C@@H](C(F)(F)F)CNC3=O)c(N3CCOCC3C)cc2n1)C1CCC(F)(F)CC1 (stereo partly drawn) [Compound 97] | < 100 nM |
| CCn1nccc1C(=O)N[C@H](c1cn2nc(C[C@H]3C[C@@H](C(F)(F)F)CNC3=O)c(C3CCCOC3)cc2n1)[C@H]1CCCC(F)(F)C1 (stereo partly drawn) [Compound 65] | < 100 nM |
